Results taken from article PMC6083370, “Influence of OATPs on Hepatic Disposition of Erlotinib Measured With Positron Emission Tomography” (Clinical Pharmacology and Therapeutics, 2017).
Several values for one entry are separate records, joined by “and”; a condition that tells them apart may be missing. Equal entries are not always repeated. Where two headings read alike, the source gives them in different places. Blank lines part the entries; values can stand above or below the compound they belong to.

Tests used:
OATP2B1 (SLCO2B1) = biological target: T1, OATP2B1 (SLCO2B1) (Homo sapiens, UniProt O94956); conditions: for Michaelis constant (K m) of the saturable component of OATP2B1‐specific uptake: 7.5 min, erlotinib 0.05–2.05 μM, ± standard error; for effect on [^11C]erlotinib uptake in OATP2B1 overexpressing cells: erlotinib 1 μM, cyclosporine A 10 μM, rifampicin 100 μM, 5 min
T1 sequence (O94956 1-709): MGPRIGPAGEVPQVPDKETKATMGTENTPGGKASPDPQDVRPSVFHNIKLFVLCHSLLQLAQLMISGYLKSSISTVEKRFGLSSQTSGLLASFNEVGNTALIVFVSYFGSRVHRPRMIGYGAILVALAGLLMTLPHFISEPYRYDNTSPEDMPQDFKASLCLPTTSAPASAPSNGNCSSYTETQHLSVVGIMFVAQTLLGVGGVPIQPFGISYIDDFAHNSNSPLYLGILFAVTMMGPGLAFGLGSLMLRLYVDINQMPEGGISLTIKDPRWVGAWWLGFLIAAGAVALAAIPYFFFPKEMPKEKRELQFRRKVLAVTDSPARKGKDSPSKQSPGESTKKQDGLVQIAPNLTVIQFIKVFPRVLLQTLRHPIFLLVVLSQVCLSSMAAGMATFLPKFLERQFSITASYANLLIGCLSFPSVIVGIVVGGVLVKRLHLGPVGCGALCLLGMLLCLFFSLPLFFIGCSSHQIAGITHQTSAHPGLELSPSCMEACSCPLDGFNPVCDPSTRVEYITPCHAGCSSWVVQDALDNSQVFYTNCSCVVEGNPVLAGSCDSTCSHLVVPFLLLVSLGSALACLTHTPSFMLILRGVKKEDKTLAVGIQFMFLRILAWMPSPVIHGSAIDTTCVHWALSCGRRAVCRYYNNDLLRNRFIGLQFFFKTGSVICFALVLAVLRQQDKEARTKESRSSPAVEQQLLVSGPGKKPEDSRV
Method: OATP overexpression was confirmed by Western blotting. Functionality of the OATPs was verified by [^3H]estrone-3-sulfate uptake experiments. A431 cells transfected with the empty vector were used as a negative control. All cell lines were cultured in Dulbecco's modified eagle medium supplemented with 10% fetal bovine serum, 2 mM L-glutamine, 100 units/mL penicillin and 100 µg/mL streptomycin. […] On the day of the experiment, growth medium was aspired and cells were washed with pre-warmed transport buffer (Hank's balanced salt solution supplemented with 10 mM N-2-hydroxyethylpiperazine-N-2-ethane sulfonic acid). […] Then the drug solutions were removed and cells were washed with pre-warmed transport buffer. […] For time dependency experiments, pre-warmed transport buffer was added and cells were incubated for 30 min. […] For concentration dependency experiments, pre-warmed transport buffer was added and cells were incubated for 30 min. […] In all experiments, cell count was determined on separate 24-well tissue culture plates before or after each experiment. In all experiments, radiotracer solutions were aspired following incubation and cells were washed twice with ice-cold transport buffer. […] Each inhibition experiment was performed 2 times with 3 technical replicates each and radioactivity in cells was corrected for radioactive decay, normalized to 10^6 cells and expressed as percent of vector control (% control). The time dependency experiment was performed once with 3 technical replicates and radioactivity in cells was corrected for radioactive decay and expressed as percent of applied dose per 10^6 cells (%AD/10^6 cells). The concentration dependency experiment was performed once with 3 technical replicates and radioactivity in cells was corrected for radioactive decay. Kinetic parameters were determined using a previously described method.^2 In brief, cellular radioactivity uptake was converted into units of pmol/min/10^6 cells. OATP2B1-specific uptake of erlotinib was determined by subtracting the uptake into cells transfected with the empty vector from the uptake into cells transfected with OATP2B1. The following equation was used to obtain kinetic parameters:
where v is the uptake velocity of erlotinib (pmol/min/10^6 cells), S is the erlotinib concentration in the transport buffer (µM), Km is the Michaelis constant (µM), Vmax is the maximum uptake velocity (pmol/min/10^6 cells), and Pdif is the non-saturable uptake clearance (µL/min/10^6 cells). Curve fitting was performed by the non-linear regression method with a modified Michaelis-Menten model according to equation 1 using Prism 6.0 software (GraphPad Software).

[1] = parameters: method as in PMID 23887590; conditions: following ritonavir pretreatment; cited from earlier work
[2] = system: P‐glycoprotein (Pgp/ABCB1); parameters: method as in PMID 20304939, PMID 21088257; conditions: cited from earlier work
OATP2B1 [3] = conditions: read-out: IC50 for OATP2B1 inhibition; cited from earlier work
OCT1 (SLC22A1) = system: OCT1 (SLC22A1); parameters: method as in PMID 21088257; conditions: cited from earlier work
OATP1B1 [4] = conditions: cited from earlier work
MRP4 = system: MRP4; parameters: method as in PMID 21088257; conditions: cited from earlier work
OATP1B1 [5] = conditions: read-out: IC50 for inhibition of OATP1B1; cited from earlier work
OATP1B1 (SLCO1B1) = biological target: T2, OATP1B1 (SLCO1B1) (Homo sapiens, UniProt Q9Y6L6); conditions: erlotinib 1 μM, cyclosporine A 10 μM, rifampicin 100 μM; 5 min
T2 sequence (Q9Y6L6 1-691): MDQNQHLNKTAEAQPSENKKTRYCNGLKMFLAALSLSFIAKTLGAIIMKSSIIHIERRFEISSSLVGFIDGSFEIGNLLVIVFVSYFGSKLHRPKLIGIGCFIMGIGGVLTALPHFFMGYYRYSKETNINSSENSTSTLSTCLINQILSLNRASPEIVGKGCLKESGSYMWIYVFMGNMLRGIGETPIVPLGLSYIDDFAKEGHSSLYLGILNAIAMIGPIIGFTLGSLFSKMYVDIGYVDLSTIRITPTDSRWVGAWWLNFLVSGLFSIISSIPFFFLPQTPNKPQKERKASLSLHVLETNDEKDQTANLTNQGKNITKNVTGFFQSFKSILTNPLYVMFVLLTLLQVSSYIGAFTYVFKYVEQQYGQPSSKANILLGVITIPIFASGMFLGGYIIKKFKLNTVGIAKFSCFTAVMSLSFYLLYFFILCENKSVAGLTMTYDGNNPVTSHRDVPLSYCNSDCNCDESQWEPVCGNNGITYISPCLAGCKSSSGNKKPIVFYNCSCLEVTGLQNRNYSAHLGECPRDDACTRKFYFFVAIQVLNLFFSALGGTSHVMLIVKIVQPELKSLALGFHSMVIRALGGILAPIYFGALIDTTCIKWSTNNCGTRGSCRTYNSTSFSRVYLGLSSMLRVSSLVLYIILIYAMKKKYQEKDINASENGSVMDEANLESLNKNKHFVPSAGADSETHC
Method: (§2) A431 cells transfected with the empty vector were used as a negative control. All cell lines were cultured in Dulbecco's modified eagle medium supplemented with 10% fetal bovine serum, 2 mM L-glutamine, 100 units/mL penicillin and 100 µg/mL streptomycin. […] On the day of the experiment, growth medium was aspired and cells were washed with pre-warmed transport buffer (Hank's balanced salt solution supplemented with 10 mM N-2-hydroxyethylpiperazine-N-2-ethane sulfonic acid). […] Then the drug solutions were removed and cells were washed with pre-warmed transport buffer. […] For time dependency experiments, pre-warmed transport buffer was added and cells were incubated for 30 min. […] In all experiments, cell count was determined on separate 24-well tissue culture plates before or after each experiment. […] Each inhibition experiment was performed 2 times with 3 technical replicates each and radioactivity in cells was corrected for radioactive decay, normalized to 10^6 cells and expressed as percent of vector control (% control). The time dependency experiment was performed once with 3 technical replicates and radioactivity in cells was corrected for radioactive decay and expressed as percent of applied dose per 10^6 cells (%AD/10^6 cells). The concentration dependency experiment was performed once with 3 technical replicates and radioactivity in cells was corrected for radioactive decay. […]

OATP1B3 [6] = conditions: read-out: IC50 for inhibition of OATP1B3; cited from earlier work
OATP1B3 (SLCO1B3) = biological target: T3, OATP1B3 (SLCO1B3) (Homo sapiens, UniProt Q9NPD5); conditions: erlotinib 1 μM, cyclosporine A 10 μM, rifampicin 100 μM; 5 min
T3 sequence (Q9NPD5 1-702): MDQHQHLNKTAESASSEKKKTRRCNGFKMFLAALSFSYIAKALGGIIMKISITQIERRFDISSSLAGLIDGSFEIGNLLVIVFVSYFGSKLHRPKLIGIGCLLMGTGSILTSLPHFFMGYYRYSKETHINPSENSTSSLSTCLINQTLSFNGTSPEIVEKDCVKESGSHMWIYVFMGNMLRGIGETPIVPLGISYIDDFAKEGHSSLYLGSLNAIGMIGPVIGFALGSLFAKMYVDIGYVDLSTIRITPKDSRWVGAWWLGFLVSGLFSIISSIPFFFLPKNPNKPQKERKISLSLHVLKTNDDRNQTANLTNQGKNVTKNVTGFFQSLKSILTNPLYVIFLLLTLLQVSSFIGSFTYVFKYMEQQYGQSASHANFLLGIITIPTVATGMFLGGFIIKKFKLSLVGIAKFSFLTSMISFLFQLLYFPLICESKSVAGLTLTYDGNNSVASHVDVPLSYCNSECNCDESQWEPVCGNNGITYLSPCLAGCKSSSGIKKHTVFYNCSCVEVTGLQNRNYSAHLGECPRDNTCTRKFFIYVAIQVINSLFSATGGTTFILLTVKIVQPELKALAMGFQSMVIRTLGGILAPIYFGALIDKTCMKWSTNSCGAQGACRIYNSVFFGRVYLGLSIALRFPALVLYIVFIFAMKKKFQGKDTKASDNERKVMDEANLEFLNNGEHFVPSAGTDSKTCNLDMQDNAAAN
Method: as §2

[7] = Tolerability of study medication in healthy volunteers; type: in vivo, human; conditions: microdose (<10 μg) i.v. and 300 mg oral
Method: (§1) One female and five male healthy volunteers (mean age: 27 ± 6 years, mean weight: 79 ± 7 kg) were enrolled in the study. […] Radioactivity in the upper abdominal region was measured over 90 min by employing a consecutive frame sequence of 1 × 15, 3 × 5, 3 × 10, 2 × 30, 3 × 60, 2 × 150, and 16 × 300 sec. In parallel to PET imaging, serial blood samples were drawn from the radial artery for the first 2.5 min, followed by samples at 3.5, 5, 10, 20, 30, 40, 60, and 80 min after radiotracer injection. For both PET scans, subjects were asked to fast for at least 6 h before radiotracer injection. Approximately 3 h before start of the second PET scan, an oral dose of 300 mg erlotinib (Tarceva, Roche Pharma, Nutley, NJ; two 150‐mg tablets) was administered. Ten blood samples were collected at baseline and hourly for 8 h and at ∼21 h after erlotinib intake. Blood samples were centrifuged to obtain plasma, which was kept at −80°C until analysis of erlotinib concentrations.

OATP1B3 [8] = conditions: cited from earlier work
[9] = system: organic anion transporter 3 (OAT3/SLC22A8); parameters: method as in PMID 20304939, PMID 21088257; conditions: cited from earlier work
[10] = system: breast cancer resistance protein (BCRP/ABCG2); parameters: method as in PMID 20304939, PMID 21088257; conditions: cited from earlier work
OAT2 (SLC22A7) = system: OAT2 (SLC22A7); parameters: method as in PMID 21088257; conditions: cited from earlier work
[11] = Plasma pharmacokinetics of unlabeled erlotinib after 300 mg oral dose (HPLC-UV); type: in vivo, human
Method: as §1, with “In parallel to PET imaging, serial blood samples were drawn from the radial artery for the first 2.5 min, followed by samples at 3.5, 5, 10, 20, 30, 40, 60, and 80 min after radiotracer injection.” left out, “Ten blood samples were collected at baseline and hourly for 8 h and at ∼21 h after erlotinib intake.” left out
Aliquots of blood and plasma were measured for radioactivity in a gamma‐counter, which was cross‐calibrated with the PET camera. […] The concentration of unlabeled erlotinib in plasma was determined by high‐performance liquid chromatography with ultraviolet detection (Supplementary Methods). Pharmacokinetic parameters of erlotinib in plasma were determined with the Kinetica 2000 software package, v. 3.0 (InnaPhase).
The concentration of unlabeled erlotinib in plasma was determined by high-performance liquid chromatography (HPLC) using a Dionex UltiMate 3000 system (Dionex Corp., Sunnyvale, USA) with ultraviolet (UV) detection at 331 nm. After the addition of 600 µL ice-cold methanol to 200 µL of plasma, the samples were centrifuged (13,000 g for 5 min) and 80 µL of clear supernatant was injected onto a Hypersil BDS-C18 column (5 µm, 250 x 4.6 mm I.D., Thermo Fisher Scientific, Inc, Waltham, USA), preceded by a Hypersil BDS-C18 pre-column (5 µm, 10 x 4.6 mm I.D.) and kept at 40°C. The mobile phase consisted of a continuous gradient mixed from aqueous ammonium acetate buffer (10 mM, pH = 5.0) (solvent A) and acetonitrile (solvent B) at a flow rate of 1.0 mL/min.

[12] = cited from earlier work
[13] = system: organic cation transporter 2 (OCT2/SLC22A2); parameters: method as in PMID 20304939, PMID 21088257; conditions: cited from earlier work
OATP2B1 [14] = system: OATP2B1; parameters: method as in PMID 28005438; conditions: cited from earlier work
[15] = parameters: method as in PMID 27036206; conditions: combination of erlotinib with rosuvastatin, 24 patients; cited from earlier work
[16] = 3 h after oral dosing, individual subjects
[17] = 4 h after oral dosing, individual subjects
[18] = individual subjects, oral 300 mg

Structure (SMILES): C#Cc1cccc(Nc2ncnc3cc(OCCOC)c(OCCO[11CH3])cc23)c1 [[^11C]erlotinib]
- Michaelis constant (K m) of the saturable component of OATP2B1‐specific uptake (OATP2B1 (SLCO2B1)): 0.324 ± 0.182 µM
- incubation time at maximum difference in uptake between OATP2B1 cells and the other cells (OATP2B1 (SLCO2B1); <0.1 μM, time dependency experiment): 10 to 15 min

Structure (SMILES): Cc1cc(C)c(NC(=O)CN(CC(=O)[O-])CC(=O)[O-])c(C)c1Br.Cc1cc(C)c(NC(=O)CN(CC(=O)[O-])CC(=O)[O-])c(C)c1Br.[99Tc+4] [[^99mTc]mebrofenin]
- increase in the efflux clearance from liver to blood [1]: 517%
- reduction in CL uptake [1]: 46%

Structure (SMILES): C#Cc1cccc(Nc2ncnc3cc(OCCOC)c(OCCOC)cc23)c1 [erlotinib]
- substrate of Pgp [2]: substrate
- IC50 (OATP2B1 [3]): 0.03 µM
- substrate of OCT1 (OCT1 (SLC22A1)): not a substrate
- transport by OATP1B1 (OATP1B1 [4]): not to be transported
- transport by MRP4 (MRP4): not to be transported
- IC50 (OATP1B1 [5]): 104 µM
- effect on [^11C]erlotinib uptake in OATP1B1 overexpressing cells (OATP1B1 (SLCO1B1)): no effect
- IC50 (OATP1B3 [6]): 1.19 µM
- effect on [^11C]erlotinib uptake in OATP1B3 overexpressing cells (OATP1B3 (SLCO1B3)): no effect
- tolerability, adverse events [7]: well tolerated by all subjects with no occurrence of adverse events
- Michaelis constant (K m) of the saturable component of OATP2B1‐specific uptake (OATP2B1 (SLCO2B1)): 0.32 µM
- effect on [^11C]erlotinib uptake in OATP2B1 overexpressing cells (OATP2B1 (SLCO2B1)): significantly decreased
- transport by OATP1B3 (OATP1B3 [8]): not to be transported
- substrate of OAT3 [9]: substrate
- substrate of BCRP [10]: substrate
- substrate of OAT2 (OAT2 (SLC22A7)): not a substrate
- CPET, plasma concentration at time of the PET scan [11, 16]: 3.30 µM and 4.12 µM and 4.73 µM and 4.91 µM and 2.66 µM and 4.61 µM
- CPET,unbound [11, 16]: 0.12 µM and 0.20 µM and 0.10, 0.10 µM and 0.28 µM
- CPET, plasma concentration at time of the PET scan [11, 17]: 3.33 µM and 4.50 µM and 4.74 µM and 5.63 µM and 2.71 µM and 4.92 µM
- CPET,unbound [11, 17]: 0.13 µM and 0.23 µM and 0.10, 0.10 µM and 0.30 µM
- Cmax ([11]; both sexes, human, plasma, po, 300 mg, oral 300 mg, mean ± SD, read-out: Maximum plasma concentration (C max), mean): 4.6 ± 1.3 µM
- AUC0-∞ [11, 18]: 68.1 µM·h and 94.0 µM·h and 72.0 µM·h and 102.8 µM·h and 36.6 µM·h and 187.8 µM·h
- T1/2, terminal elimination half-life [11, 18]: 14.1 h and 12.5 h and 9.2 h and 11.3 h and 5.4 h and 28.7 h
- Tmax [11, 18]: 2 h and 6 h and 4 h
- Cmax ([11]; individual subjects, oral 300 mg, read-out: Cmax): 3.51 µM and 5.03 µM and 4.74 µM and 6.43 µM and 2.83 µM and 4.92 µM
- plasma concentration at the time of the PET scan ([11]; mean of values at 3 h and 4 h after oral intake of 300 mg): 4.2 ± 1.0 µM
- unbound plasma concentration at the time of the PET scan ([11]; mean, oral 300 mg): 0.18 µM
- time of C max, median ([11]; oral 300 mg): 5 h
- time of C max, range ([11]; oral 300 mg): 2 to 6 h
- logP [12]: 4.19
- substrate of OCT2 [13]: substrate

Structure (SMILES): COc1cc2ncnc(Nc3ccc(F)c(Cl)c3)c2cc1OCCCN1CCOCC1 [gefitinib]
- transport by OATP2B1 (OATP2B1 [14]): transported

- effect on [^11C]erlotinib uptake in OATP2B1 overexpressing cells (OATP2B1 (SLCO2B1)): significantly decreased
Structure (SMILES): CO[C@H]1/C=C/O[C@@]2(C)Oc3c(C)c(O)c4c(O)c(c(/C=N/N5CCN(C)CC5)c(O)c4c3C2=O)NC(=O)/C(C)=C\C=C\[C@H](C)[C@H](O)[C@@H](C)[C@@H](O)[C@@H](C)[C@H](OC(C)=O)[C@@H]1C [rifampicin]

Structure (SMILES): CC(C)c1nc(N(C)S(C)(=O)=O)nc(-c2ccc(F)cc2)c1/C=C/[C@@H](O)C[C@@H](O)CC(=O)O [rosuvastatin]
- rate of muscle toxicity [15]: 34%
